# Measured values taken from ChEMBL document CHEMBL3751750, “2-Amino-4-bis(aryloxybenzyl)aminobutanoic acids: A novel scaffold for inhibition of ASCT2-mediated glutamine transport” (Bioorg Med Chem Lett, 2016).
# Columns and labels:
# [1] = target: T1, Neutral amino acid transporter B(0) (Homo sapiens, UniProt Q15758); test: Inhibition of ASCT2 (unknown origin)-mediated glutamine transport
# T1 sequence (Q15758 whole entry): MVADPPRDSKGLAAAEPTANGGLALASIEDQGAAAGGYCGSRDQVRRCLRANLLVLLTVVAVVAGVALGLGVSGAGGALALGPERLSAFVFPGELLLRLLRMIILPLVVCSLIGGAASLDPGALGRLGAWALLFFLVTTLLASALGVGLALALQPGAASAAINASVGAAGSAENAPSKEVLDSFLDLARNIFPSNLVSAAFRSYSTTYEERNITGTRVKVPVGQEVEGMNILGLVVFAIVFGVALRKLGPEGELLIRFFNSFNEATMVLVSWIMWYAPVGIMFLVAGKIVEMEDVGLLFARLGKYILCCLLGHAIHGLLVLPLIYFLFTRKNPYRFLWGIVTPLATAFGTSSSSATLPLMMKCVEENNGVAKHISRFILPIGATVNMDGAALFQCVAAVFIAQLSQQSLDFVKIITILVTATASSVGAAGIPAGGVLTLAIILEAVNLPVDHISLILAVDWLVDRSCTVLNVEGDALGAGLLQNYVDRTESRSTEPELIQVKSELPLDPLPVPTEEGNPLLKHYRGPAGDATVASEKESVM
# [2] = target: T1, Neutral amino acid transporter B(0); test: Inhibition of ASCT2-mediated glutamine transport in human HEK293 cells using [3H]-glutamine after 15 mins by scintillation counting; type: cell-based
# Amino acid transporter = target: T2, Amino acid transporter (Rattus norvegicus, UniProt Q9Z1J7); test: Inhibition of ASCT2-mediated glutamine transport in rat C6 cells using [3H]-glutamine after 15 mins by scintillation counting; type: cell-based
# T2 sequence (Q9Z1J7 whole entry): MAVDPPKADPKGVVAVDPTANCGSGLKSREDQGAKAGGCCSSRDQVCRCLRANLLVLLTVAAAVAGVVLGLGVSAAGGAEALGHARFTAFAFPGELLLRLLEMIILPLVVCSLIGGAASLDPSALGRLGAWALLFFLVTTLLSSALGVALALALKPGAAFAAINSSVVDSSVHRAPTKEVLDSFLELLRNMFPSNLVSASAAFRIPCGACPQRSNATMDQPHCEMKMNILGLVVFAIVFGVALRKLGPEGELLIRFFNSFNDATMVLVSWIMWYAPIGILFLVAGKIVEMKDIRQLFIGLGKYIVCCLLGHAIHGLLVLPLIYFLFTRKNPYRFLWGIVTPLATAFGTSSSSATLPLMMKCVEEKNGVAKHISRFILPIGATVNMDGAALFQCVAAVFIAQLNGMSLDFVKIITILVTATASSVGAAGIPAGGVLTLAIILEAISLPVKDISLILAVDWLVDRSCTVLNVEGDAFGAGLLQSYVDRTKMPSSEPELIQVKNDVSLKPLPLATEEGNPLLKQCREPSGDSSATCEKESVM
SMILES,IC50 [1],IC50 [2],IC50 (Amino acid transporter)
N[C@@H](CCN(Cc1ccccc1OCc1ccccc1F)Cc1ccccc1OCc1ccccc1F)C(=O)O,,,3.3 µM
N[C@@H](CCN(Cc1ccccc1OCc1ccccc1Cl)Cc1ccccc1OCc1ccccc1Cl)C(=O)O,,40.1 µM,18.4 µM
N[C@@H](CCN(Cc1ccccc1Oc1cccc(F)c1)Cc1ccccc1Oc1cccc(F)c1)C(=O)O,,,36.3 µM
N[C@@H](CCN(Cc1ccccc1Oc1ccccn1)Cc1ccccc1Oc1ccccn1)C(=O)O,,59.6 µM,68.2 µM
Cc1ccccc1COc1ccccc1CN(CC[C@H](N)C(=O)O)Cc1ccccc1OCc1ccccc1C,,25.6 µM,41.7 µM
N#Cc1cc(Br)ccc1/N=c1\ssnc1Cl,3.7 µM,,
COc1ccc(Oc2ccccc2CN(CC[C@H](N)C(=O)O)Cc2ccccc2Oc2ccc(OC)cc2)cc1,,11.9 µM,8.7 µM
N[C@@H](CCN(Cc1ccccc1OCc1cccc(Cl)c1)Cc1ccccc1OCc1cccc(Cl)c1)C(=O)O,,50.8 µM,12.7 µM
COc1cccc(Oc2ccccc2CN(CC[C@H](N)C(=O)O)Cc2ccccc2Oc2cccc(OC)c2)c1,,57.2 µM,1.3 µM
Cc1ccc(COc2ccccc2CN(CC[C@H](N)C(=O)O)Cc2ccccc2OCc2ccc(C)cc2)cc1,,17.5 µM,86.4 µM
N[C@@H](CCN(Cc1ccccc1OCc1ccc(F)cc1)Cc1ccccc1OCc1ccc(F)cc1)C(=O)O,,,11.2 µM
N[C@@H](CCN(Cc1ccccc1OCc1ccc(Cl)cc1)Cc1ccccc1OCc1ccc(Cl)cc1)C(=O)O,,33.7 µM,20.1 µM
COc1cccc(COc2ccccc2CN(CC[C@H](N)C(=O)O)Cc2ccccc2OCc2cccc(OC)c2)c1,,7.2 µM,5.1 µM

# Second part, the molecule after the results:
IC50 [1],IC50 [2],IC50 (Amino acid transporter),SMILES
30 µM,,,N[C@@H](COC(=O)c1ccc(-c2ccccc2)cc1)C(=O)O
,48.3 µM,8.4 µM,N[C@@H](CCN(Cc1ccccc1OCc1ccccn1)Cc1ccccc1OCc1ccccn1)C(=O)O
,33.8 µM,1.8 µM,N[C@@H](CCN(Cc1ccccc1Oc1ccccc1F)Cc1ccccc1Oc1ccccc1F)C(=O)O
,142 µM,10.5 µM,N[C@@H](CCN(Cc1ccccc1Oc1ccc(F)cc1)Cc1ccccc1Oc1ccc(F)cc1)C(=O)O
,26 µM,,N[C@@H](CCN(Cc1ccccc1Oc1ccc(Cl)cc1)Cc1ccccc1Oc1ccc(Cl)cc1)C(=O)O
,69.1 µM,17.3 µM,N[C@@H](CCN(Cc1ccccc1OCc1cccnc1)Cc1ccccc1OCc1cccnc1)C(=O)O
1000 µM,1200 µM,,N[C@@H](CCC(=O)Nc1ccc([N+](=O)[O-])cc1)C(=O)O
